From US20130171098A1, “Cyclopropyl Fused Indolobenzazepine HCV NS5B Inhibitors” (priority 2006, published 2013)
Where two headings read alike, the source gives them in different places.

Key:
[1] = target: T1, HCV NS5B RdRp genotype 1b (Hepatitis C virus genotype 1b, UniProt Q9WMX2); test: HCV NS5B RdRp enzyme assay (standard / modified); format: biochemical
T1 construct: The protein was expressed with an 18 amino acid C-terminal truncation to enhance the solubility; made in house; host or cells: E. coli BL21(DE3), pET21a vector
T1 sequence (Q9WMX2 2420-2992): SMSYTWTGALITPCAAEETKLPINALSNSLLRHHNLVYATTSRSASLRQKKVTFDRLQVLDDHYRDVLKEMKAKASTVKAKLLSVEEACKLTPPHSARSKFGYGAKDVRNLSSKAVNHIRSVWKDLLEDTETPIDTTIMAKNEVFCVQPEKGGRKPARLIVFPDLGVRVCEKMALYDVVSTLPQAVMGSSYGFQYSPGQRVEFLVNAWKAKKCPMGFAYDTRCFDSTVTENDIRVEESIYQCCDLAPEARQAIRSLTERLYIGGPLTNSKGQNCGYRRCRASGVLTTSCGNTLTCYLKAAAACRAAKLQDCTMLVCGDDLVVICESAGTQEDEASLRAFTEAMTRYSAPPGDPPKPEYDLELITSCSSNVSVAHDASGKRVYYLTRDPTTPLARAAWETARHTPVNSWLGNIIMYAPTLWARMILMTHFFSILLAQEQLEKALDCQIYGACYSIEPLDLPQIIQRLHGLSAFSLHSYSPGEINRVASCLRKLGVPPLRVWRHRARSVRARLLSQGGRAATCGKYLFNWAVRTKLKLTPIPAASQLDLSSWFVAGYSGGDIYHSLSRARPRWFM
Description: HCV NS5B RdRp Cloning, Expression, and Purification.
The cDNA encoding the NS5B protein of HCV, genotype 1b, was cloned into the pET21a expression vector. The protein was expressed with an 18 amino acid C-terminal truncation to enhance the solubility. The E. coli competent cell line BL21(DE3) was used for expression of the protein. Cultures were grown at 37° C. for ˜4 hours until the cultures reached an optical density of 2.0 at 600 nm. The cultures were cooled to 20° C. and induced with 1 mM IPTG. Fresh ampicillin was added to a final concentration of 50 μg/ml and the cells were grown overnight at 20° C.
The lysis buffer consisted of 20 mM Tris-HCl, pH 7.4, 500 mM NaCl, 0.5% triton X-100, 1 mM DTT, 1 mM EDTA, 20% glycerol, 0.5 mg/ml lysozyme, 10 mM MgCl2, 15 ug/ml deoxyribonuclease I, and Complete TM protease inhibitor tablets (Roche). After addition of the lysis buffer, frozen cell pellets were resuspended using a tissue homogenizer. To reduce the viscosity of the sample, aliquots of the lysate were sonicated on ice using a microtip attached to a Branson sonicator. The sonicated lysate was centrifuged at 100,000×g for 1 hr at 4° C. and filtered through a 0.2 μm filter unit (Corning).
The protein was purified using two sequential chromatography steps: Heparin sepharose CL-6B and polyU sepharose 4B (Pharmacia). The chromatography buffers were identical to the lysis buffer but contained no lysozyme, deoxyribonuclease I, MgCl2 or protease inhibitor and the NaCl concentration of the buffer was adjusted according to the requirements for charging the protein onto the column. Each column was eluted with a NaCl gradient which varied in length from 5-50 column volumes depending on the column type. […] The enzyme was aliquoted and stored at −80° C.
Standard HCV NS5B RdRp Enzyme Assay.
HCV RdRp genotype 1b assays were run in a final volume of 60 μl in 96 well plates (Corning 3600). The assay buffer is composed of 20 mM Hepes, pH 7.5, 2.5 mM KCl, 2.5 mM MgCl2, 1 mM DTT, 1.6 U RNAse inhibitor (Promega N2515), 0.01 mg/ml BSA (Sigma B6917), and 2% glycerol. All compounds were serially diluted (3-fold) in DMSO and diluted further in water such that the final concentration of DMSO in the assay was 2%. HCV RdRp genotype 1b enzyme was used at a final concentration of 28 nM. A polyA template was used at 6 nM, and a biotinylated oligo-dT12 primer was used at 180 nM final concentration. Template was obtained commercially (Amersham 27-4110). Biotinylated primer was prepared by Sigma Genosys. 3H-UTP was used at 0.6 μCi (0.29 μM total UTP). Reactions were initiated by the addition of enzyme, incubated at 30° C. for 60 min, and stopped by adding 25 μl of 50 mM EDTA containing SPA beads (4 μg/μl, Amersham RPNQ 0007). Plates were read on a Packard Top Count NXT after >1 hr incubation at room temperature.
Modified HCV NS5B RdRp Enzyme Assay.
A modified enzyme assay was performed essentially as described for the standard enzyme assay except for the following: The biotinylated oligo dT12 primer was precaptured on streptavidin-coated SPA beads by mixing primer and beads in assay buffer and incubating at room temperature for one hour. Unbound primer was removed after centrifugation. The primer-bound beads were resuspended in 20 mM Hepes buffer, pH 7.5 and used in the assay at final concentrations of 20 nM primer and 0.67 μg/μl beads. Order of addition in the assay: enzyme (1.75 nM) was added to diluted compound followed by the addition of a mixture of template (0.36 nM), 3H-UTP (0.6 μCi, 0.29 μM), and primer-bound beads, to initiate the reaction; concentrations given are final. Reactions were allowed to proceed for 4 hours at 30° C.
IC50 values for compounds were determined using seven different [I].

HCV replicon cells = test: HCV replicon FRET / luciferase assay; format: cell-based, Hepatitis C virus
Description: The HCV FRET screening assay was performed in 96-well cell culture plates. The FRET peptide (Anaspec, Inc.) (Taliani et al., Anal. Biochem. 1996, 240, 60-67) contains a fluorescence donor, EDANS, near one end of the peptide and an acceptor, DABCYL, near the other end. The fluorescence of the peptide is quenched by […] resonance energy transfer (RET) between the donor and the acceptor, but as the NS3 protease cleaves the peptide the products are released from RET quenching and the fluorescence of the donor becomes apparent. The assay reagent was made as follows: 5× cell Luciferase cell culture lysis reagent from Promega (#E153A) diluted to 1× with dH2O, NaCl added to 150 mM final, the FRET peptide diluted to 20 μM final from a 2 mM stock.
To prepare plates, HCV replicon cells, with or without a Renilla luciferase reporter gene, were trypsinized and plated in a 96-well plate with titrated test compounds added in columns 3 through 12; columns 1 and 2 contained a control compound (HCV control inhibitor), and the bottom row contained cells with DMSO only. The plates were then placed in a CO2 incubator at 37° C.
Subsequent to addition of the test compounds described above (FRET Assay Preparation), at various times the plate was removed and Alamar blue solution (Trek Diagnostics, #00-100) was added to measure cellular toxicity. After reading in a Cytoflour 4000 instrument (PE Biosystems), plates were rinsed with PBS and then used for FRET assay by the addition of 30 ul of the FRET peptide assay reagent described above (FRET Assay Preparation) per well. The plate was then placed into the Cytoflour 4000 instrument which had been set to 340 excite/490 emission, automatic mode for up to 20 cycles and the plate read in a kinetic mode. Typically, the signal to noise using an endpoint analysis after the reads was at least three-fold. Alternatively, after Alamar blue reading, plates were rinsed with PBS, then used for luciferase assay using the Promega Dual-Glo Luciferase Assay System or the Promega EnduRen Live Cell Substrate assay.
Compound analysis was performed by quantification of the relative HCV replicon inhibition and the relative cytotoxicity values. To calculate cytoxicity values, the average Alamar Blue fluorescence signals from the control wells were set as 100% non-toxic. The individual signals in each of the compound test wells were then divided by the average control signal and multiplied by 100% to determine […]. To calculate the HCV replicon inhibition values, an average background value was obtained from the two wells containing the highest amount of HCV control inhibitor at the end of the assay period. These numbers were similar to those obtained from naïve Huh-7 cells. The background numbers were then subtracted from the average signal obtained from the control wells and this number was used as 100% activity. The individual signals in each of the compound test wells were then divided by the averaged control values after background subtraction and multiplied by 100% to determine percent activity. […] The two numbers generated for the compound plate, percent cytoxicity and percent activity, were used to determine compounds of interest for further analysis.

[2] = Hepatitis C virus, HCV replicon cells, FRET or luciferase activity, read-out: EC50
[3] = HCV NS5B RdRp genotype 1b enzyme
[4] = HCV replicon cells, FRET or luciferase activity

Row | SMILES | IC50 [1] | EC50 (HCV replicon cells; Hepatitis C virus) | other results
1 | COc1ccc2c(c1)C1CC1(C(=O)N1C3CCC1CN(C)C3)Cn1c-2c(C2CCCCC2)c2ccc(C(=O)NS(=O)(=O)N3C[C@@H](C)O[C@@H](C)C3)cc21 (stereo partly drawn) [drawing 94] | 1 to 500 nM | 1 to 500 nM | –
2 | CNS(=O)(=O)NC(=O)c1ccc2c(C3CCCCC3)c3n(c2c1)CC1(C(=O)N2[C@@H]4CC[C@H]2CN(C)C4)CC1c1cc(OC)ccc1-3 (stereo partly drawn) [drawing 55] | 1 to 500 nM | 1 to 500 nM | –
3 | COc1ccc2c(c1)C1CC1(C(=O)N1C3CCC1CNC3)Cn1c-2c(C2CCCCC2)c2ccc(C(=O)NS(=O)(=O)N(C)C)cc21 (stereo not drawn) [drawing 34] | 1 to 500 nM | 1 to 500 nM | –
4 | COc1ccc2c(c1)[C@@H]1CC1(C(=O)N1C3CCC1CN(C)C3)Cn1c-2c(C2CCCCC2)c2ccc(C(=O)NS(=O)(=O)CC(C)C)cc21 (stereo partly drawn) | 1 to 500 nM | – | EC50 (HCV replicon cells; [2]): 1 to 500 nM
5 | COc1ccc2c(c1)C1CC1(C(=O)N1[C@@H]3CC[C@H]1CN(S(C)(=O)=O)C3)Cn1c-2c(C2CCCCC2)c2ccc(C(=O)NS(=O)(=O)N(C)C)cc21 (stereo partly drawn) | 1 to 500 nM | 1 to 500 nM | –
6 | COc1ccc2c(c1)C1CC1C(C(=O)N1C3CCC1CN(C)C3)n1c-2c(C2CCCCC2)c2ccc(C(=O)NS(=O)(=O)C3CC3)cc21 (stereo not drawn) [drawing 113] | – | – | IC50 [1, 3]: 1 to 500 nM; EC50 (HCV replicon cells; [4]): 1 to 500 nM
7 | COc1ccc2c(c1)C1CC1(C(=O)N1C3CCC1CN(C)C3)Cn1c-2c(C2CCCCC2)c2ccc(C(=O)NS(=O)(=O)CC(F)(F)F)cc21 (stereo not drawn) | – | 1 to 500 nM | –
8 | COc1ccc2c(c1)C1CC1(C(=O)N1C3CCC1CN(CC1CC1)C3)Cn1c-2c(C2CCCCC2)c2ccc(C(=O)NS(=O)(=O)N(C)C)cc21 (stereo not drawn) [drawing 65] | – | – | IC50 [1, 3]: 1 to 500 nM; EC50 (HCV replicon cells; [4]): 1 to 500 nM
9 | CCC(C)S(=O)(=O)NC(=O)c1ccc2c(C3CCCCC3)c3n(c2c1)CC(C(=O)N1C2CCC1CN(C)C2)=Cc1cc(OC)ccc1-3 (stereo not drawn) | 1 to 500 nM | 1 to 500 nM | –
10 | CNS(=O)(=O)NC(=O)c1ccc2c(C3CCCCC3)c3n(c2c1)CC1(C(=O)N2C4CCC2CN(C)C4)CC1c1cc(OC)ccc1-3 (stereo not drawn) [drawing 47] | – | – | IC50 [1, 3]: 1 to 500 nM; EC50 (HCV replicon cells; [4]): 1 to 500 nM
11 | COc1ccc2c(c1)C1CC1(C(=O)N1C3CCC1CN(C)C3)Cn1c-2c(C2CCCCC2)c2ccc(C(=O)NS(=O)(=O)N3CCC3)cc21 (stereo not drawn) [drawing 30] | – | – | IC50 [1, 3]: 1 to 500 nM; EC50 (HCV replicon cells; [4]): 1 to 500 nM
12 | COc1ccc2c(c1)C1CC1(C(=O)N1[C@@H]3CC[C@H]1CN(C(C)=O)C3)Cn1c-2c(C2CCCCC2)c2ccc(C(=O)NS(=O)(=O)N(C)C)cc21 (stereo partly drawn) | 1 to 500 nM | 1 to 500 nM | –
13 | COc1ccc2c(c1)[C@@H]1C[C@]1(C(=O)N1C3CCC1CN(C)C3)Cn1c-2c(C2CCCCC2)c2ccc(C(=O)NS(=O)(=O)N(C)C)cc21 | – | – | IC50 ([1]; HCV NS5B RdRp genotype 1b enzyme, read-out: IC50): 1 to 500 nM; EC50 (HCV replicon cells; [2]): 1 to 500 nM
14 | COc1ccc2c(c1)[C@@H]1CC1(C(=O)N1C3CCC1CN(C)C3)Cn1c-2c(C2CCCCC2)c2ccc(C(=O)NS(=O)(=O)C3CCC3)cc21 (stereo partly drawn) | 1 to 500 nM | – | EC50 (HCV replicon cells; [2]): 1 to 500 nM
15 | CC(C)S(=O)(=O)NC(=O)c1ccc2c(C3CCCCC3)c3n(c2c1)CC1(C(=O)N2C4CCC2CN(C)C4)CC1c1ccccc1-3 (stereo not drawn) [drawing 126] | – | 1 to 500 nM | –
16 | COc1ccc2c(c1)C1CC1(C(=O)N1C3CCC1CN(C)C3)Cn1c-2c(C2CCCCC2)c2ccc(C(=O)NS(=O)(=O)CCC(F)(F)F)cc21 (stereo not drawn) | – | 1 to 500 nM | –
17 | COC(=O)c1ccc2c(C3CCCCC3)c3n(c2c1)CC1(C(=O)N2C4CCC2CN(C)C4)CC1c1c(OC)cccc1-3 (stereo not drawn) | > 500 nM | – | –
18 | COc1ccc2c(c1)[C@@H]1C[C@]1(C(=O)N1C3CCC1CN(C)C3)Cn1c-2c(C2CCCCC2)c2ccc(C(=O)NS(=O)(=O)C(C)C)cc21 | – | 1 to 500 nM | –
19 | CC(C)S(=O)(=O)NC(=O)c1ccc2c(C3CCCCC3)c3n(c2c1)CC1(C(=O)N2C4CCC2CN(C)C4)CC1c1ccccc1-3 (stereo not drawn) [drawing 130] | – | – | EC50 (HCV replicon cells; [4]): 1 to 500 nM
20 | CC(C)S(=O)(=O)NC(=O)c1ccc2c(C3CCCCC3)c3n(c2c1)CC1(C(=O)N2C4CCC2CN(C)C4)CC1c1ccccc1-3 (stereo not drawn) [drawing 131] | – | – | EC50 (HCV replicon cells; [4]): 1 to 500 nM
21 | COc1ccc2c(c1)C1CC1(C(=O)N1C3CCC1CN(C)C3)Cn1c-2c(C2CCCCC2)c2ccc(C(=O)NS(=O)(=O)CC(C)C)cc21 (stereo not drawn) | – | – | EC50 (HCV replicon cells; [2]): 1 to 500 nM
22 | CN1CC2CCC(C1)N2C(=O)C12CC1c1ccccc1-c1c(C3CCCCC3)c3ccc(C(=O)NS(=O)(=O)N(C)C)cc3n1C2 (stereo not drawn) | – | 1 to 500 nM | –
23 | COc1ccc2c(c1)C1CC1(C(=O)N1C3CCC1CN(C)C3)Cn1c-2c(C2CCCCC2)c2ccc(C(=O)NS(=O)(=O)C(C)(C)C)cc21 (stereo not drawn) | – | 1 to 500 nM | –
24 | CCC(C)S(=O)(=O)NC(=O)c1ccc2c(C3CCCCC3)c3n(c2c1)CC1(C(=O)N2C4CCC2CN(C)C4)CC1c1cc(OC)ccc1-3 (stereo not drawn) | – | 1 to 500 nM | –
25 | COc1ccc2c(c1)[C@H]1C[C@@]1(C(=O)N1C3CCC1CN(C)C3)Cn1c-2c(C2CCCCC2)c2ccc(C(=O)NS(=O)(=O)C(C)C)cc21 | – | 1 to 500 nM | –
26 | COc1ccc2c(c1)C1CC1(C(=O)N1C3CCC1CN(C)C3)Cn1c-2c(C2CCCCC2)c2ccc(C(=O)NS(=O)(=O)C(C)C)cc21 (stereo not drawn) | – | 1 to 500 nM | –
27 | COc1ccc2c(c1)C1CC1(C(=O)N1C3CCC1CN(C)C3)Cn1c-2c(C2CCCCC2)c2ccc(C(=O)NS(=O)(=O)C3CCCC3)cc21 (stereo not drawn) | – | 1 to 500 nM | –
28 | COC(=O)c1ccc2c(C3CCCCC3)c3n(c2c1)CC1(C(=O)N2C4CCC2CN(C)C4)CC1c1c(OC(F)(F)F)cccc1-3 (stereo not drawn) | > 500 nM | – | –
29 | CCCS(=O)(=O)NC(=O)c1ccc2c(C3CCCCC3)c3n(c2c1)CC1(C(=O)N2C4CCC2CN(C)C4)CC1c1cc(OC)ccc1-3 (stereo not drawn) | – | 1 to 500 nM | –
